# From article PMC10734772 (Turkish Journal of Chemistry, 2021)
# What was measured:
# Type in all cases: cell-based
# Nalm-6 = test: MTT assay, Nalm-6 cells; conditions: Homo sapiens, 24 h, MTT, read-out: Viability rate
# Method: K562, Jurkat and Molt-4 cell lines were seeded as 4x10^5/ml, Reh and Nalm-6 cell lines were seeded 5x10^5/ml, Hek293T cell line was seed as 2x10^5/ml.
# MTT assay is a 3-day test. On the first day, cell count was performed in Bio Rad TC-20 device with the help of trypan blue, each cell line was prepared by diluting to the specified concentrations and seeded in a 96-well plate as 100μL to each well and incubated for 1 day.
# On the second day, stock solutions were subsequently diluted to various concentrations (0.3–200 μM) with related medium prior to experiments. Specified concentrations of the compounds were seeded in a 96-well plate as 100μL to each well and incubated for 24 h.
# After incubation (on the third day), to precipitate leukemia cells, the cell plate was centrifuged at 1500 rpm for 5 min. […] The 50 μl of supernatant was discarded from each well and 100 μl of DMSO was added to dissolve the formazan. Plates were shaken for 45 min to dissolve the dye. Then the optical density of each well was measured by using Thermo VarioSkan Flush Multimode Reader Quantum ST5-1100 at 570 nm wavelength.
# Subsequently, viability rate of the cells at each concentration, as percentage, was determined by following formula (1):
# Viability rate (%)=100-[(OD(control)-OD(sample))/OD(control)×100].OD=Optical Density
# The IC50 values were calculated by using GraphPad Prism. All the data presented as the mean of 6 replicates. […] Statistical analysis was performed using dose-response inhibition, log(inhibitor) vs response-variable slope, least squares (ordinary) fit.
# Reh = test: MTT assay, Reh cells; conditions: Homo sapiens, 24 h, read-out: Viability rate
# Molt-4 = test: MTT assay, Molt-4 cells; conditions: Homo sapiens, MOLT-4, 24 h, read-out: Viability rate
# Jurkat = test: MTT assay, Jurkat cells; conditions: Homo sapiens, 24 h, read-out: Viability rate
# [1] = tested on: K562, Nalm-6, Molt-4, Reh, Jurkat, Hek293T cell lines; test: MTT assay, overall judgement over all cell lines; conditions: overall judgement in words; for 6 and 10: on all cell lines, except Reh
# Outline: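 MTT viability assay run across a range of compound concentrations in leukemic lines, BCR-ABL positive K562 and BCR-ABL negative Nalm-6, Molt-4, Reh, Jurkat, plus non-leukemic Hek293T. Viability rate calculated per concentration.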
# K562 = test: MTT assay, K562 cells; conditions: Homo sapiens, 24 h, MTT, read-out: Viability rate
# [2] = MTT assay, Hek293T non-leukemic control cells; conditions: human, read-out: Viability rate
smiles,measurement,setting,value
"Cc1ccnc(Nc2cc(NC(=O)c3ccc(CN4CCOCC4)cc3)ccc2C)n1 [Compound 8, N-(4-Methyl-3-((4-methylpyrimidin-2-yl)amino)phenyl)-4-(morhpolinomethyl)benzamide]",viability at 0.3 µM,"Nalm-6; Nalm-6, 0.3 μM",102.8 ± 0.04%
same,viability at 0.5 µM,"Nalm-6; Nalm-6, 0.5 μM",101.8 ± 0.04%
same,viability at 1 µM,"Nalm-6; Nalm-6, 1 μM",102.7 ± 0.02%
same,viability at 3 µM,"Nalm-6; Nalm-6, 3 μM",99.6 ± 0.04%
same,viability at 5 µM,"Nalm-6; Nalm-6, 5 μM",102.5 ± 0.02%
same,viability at 10 µM,"Nalm-6; Nalm-6, 10 μM",100.6 ± 0.03%
same,viability at 15 µM,"Nalm-6; Nalm-6, 15 μM",100 ± 0.03%
same,viability at 20 µM,"Nalm-6; Nalm-6, 20 μM",94.2 ± 0.07%
same,viability at 30 µM,"Nalm-6; Nalm-6, 30 μM",95.9 ± 0.07%
same,viability at 50 µM,"Nalm-6; Nalm-6, 50 μM",91.9 ± 0.06%
same,viability at 70 µM,"Nalm-6; Nalm-6, 70 μM",87.7 ± 0.02%
same,viability at 100 µM,"Nalm-6; Nalm-6, 100 μM",87.4 ± 0.02%
same,viability at 150 µM,"Nalm-6; Nalm-6, 150 μM",81.3 ± 0.02%
same,viability at 200 µM,"Nalm-6; Nalm-6, 200 μM",70.8 ± 0.01%
same,viability at 0.3 µM,Reh; 0.3 μM,100.8 ± 0.03%
same,viability at 0.5 µM,Reh; 0.5 μM,102.4 ± 0.02%
same,viability at 1 µM,Reh; 1 μM,102 ± 0.01%
same,viability at 3 µM,Reh; 3 μM,104.8 ± 0.02%
same,viability at 5 µM,Reh; 5 μM,103.5 ± 0.01%
same,viability at 10 µM,Reh; 10 μM,103.1 ± 0.01%
same,viability at 15 µM,Reh; 15 μM,100.3 ± 0.01%
same,viability at 20 µM,Reh; 20 μM,100.6 ± 0.02%
same,viability at 30 µM,Reh; 30 μM,102.4 ± 0.04%
same,viability at 50 µM,Reh; 50 μM,99.4 ± 0.02%
same,viability at 70 µM,Reh; 70 μM,94.2 ± 0.03%
same,viability at 100 µM,Reh; 100 μM,91.1 ± 0.01%
same,viability at 150 µM,Reh; 150 μM,91.1 ± 0.02%
same,viability at 200 µM,Reh; 200 μM,91.2 ± 0.04%
same,viability at 0.3 µM,"Molt-4; Molt-4, 0.3 μM",98.5 ± 0.09%
same,viability at 0.5 µM,"Molt-4; Molt-4, 0.5 μM",98.5 ± 0.11%
same,viability at 1 µM,"Molt-4; Molt-4, 1 μM",95.4 ± 0.11%
same,viability at 3 µM,"Molt-4; Molt-4, 3 μM",89.2 ± 0.07%
same,viability at 5 µM,"Molt-4; Molt-4, 5 μM",90.7 ± 0.07%
same,viability at 10 µM,"Molt-4; Molt-4, 10 μM",90.4 ± 0.07%
same,viability at 15 µM,"Molt-4; Molt-4, 15 μM",90.8 ± 0.05%
same,viability at 20 µM,"Molt-4; Molt-4, 20 μM",88.3 ± 0.04%
same,viability at 30 µM,"Molt-4; Molt-4, 30 μM",85.8 ± 0.04%
same,viability at 50 µM,"Molt-4; Molt-4, 50 μM",83.6 ± 0.02%
same,viability at 70 µM,"Molt-4; Molt-4, 70 μM",82.6 ± 0.09%
same,viability at 100 µM,"Molt-4; Molt-4, 100 μM",81.5 ± 0.09%
same,viability at 150 µM,"Molt-4; Molt-4, 150 μM",78.9 ± 0.05%
same,viability at 200 µM,"Molt-4; Molt-4, 200 μM",78.8 ± 0.07%
same,viability at 0.3 µM,Jurkat; 0.3 μM,81.7 ± 0.08%
same,viability at 0.5 µM,Jurkat; 0.5 μM,78.7 ± 0.03%
same,viability at 1 µM,Jurkat; 1 μM,75.8 ± 0.04%
same,viability at 3 µM,Jurkat; 3 μM,76.8 ± 0.04%
same,viability at 5 µM,Jurkat; 5 μM,78.8 ± 0.02%
same,viability at 10 µM,Jurkat; 10 μM,78.5 ± 0.05%
same,viability at 15 µM,Jurkat; 15 μM,77.6 ± 0.05%
same,viability at 20 µM,Jurkat; 20 μM,77.6 ± 0.04%
same,viability at 30 µM,Jurkat; 30 μM,66.1 ± 0.07%
same,viability at 50 µM,Jurkat; 50 μM,65.4 ± 0.03%
same,viability at 70 µM,Jurkat; 70 μM,65.3 ± 0.04%
same,viability at 100 µM,Jurkat; 100 μM,63 ± 0.02%
same,viability at 150 µM,Jurkat; 150 μM,62.4 ± 0.08%
same,viability at 200 µM,Jurkat; 200 μM,62.3 ± 0.05%
same,anticancer activity according to MTT assay results,[1],relatively lower activity
same,viability at 0.3 µM,"K562; K562, 0.3 μM",86.2 ± 0.09%
same,viability at 0.5 µM,"K562; K562, 0.5 μM",85.3 ± 0.03%
same,viability at 1 µM,"K562; K562, 1 μM",84.7 ± 0.05%
same,viability at 3 µM,"K562; K562, 3 μM",84.7 ± 0.06%
same,viability at 5 µM,"K562; K562, 5 μM",76.8 ± 0.11%
same,viability at 10 µM,"K562; K562, 10 μM",76.7 ± 0.05%
same,viability at 15 µM,"K562; K562, 15 μM",76.7 ± 0.08%
same,viability at 20 µM,"K562; K562, 20 μM",76.6 ± 0.04%
same,viability at 30 µM,"K562; K562, 30 μM",75.6 ± 0.09%
same,viability at 50 µM,"K562; K562, 50 μM",72.5 ± 0.07%
same,viability at 70 µM,"K562; K562, 70 μM",72.6 ± 0.08%
same,viability at 100 µM,"K562; K562, 100 μM",66.4 ± 0.02%
same,viability at 150 µM,"K562; K562, 150 μM",65.3 ± 0.06%
same,viability at 200 µM,"K562; K562, 200 μM",65.2 ± 0.06%
same,"viability at 24 h, 0.3 µM","[2]; Hek293T cells (non-leukemic control cell line), 0.3 μM",95.7 ± 0.03%
same,"viability at 24 h, 0.5 µM","[2]; Hek293T cells (non-leukemic control cell line), 0.5 μM",94.8 ± 0.07%
same,"viability at 24 h, 3 µM","[2]; Hek293T cells (non-leukemic control cell line), 3 μM",92.9 ± 0.04%
same,"viability at 24 h, 5 µM","[2]; Hek293T cells (non-leukemic control cell line), 5 μM",91.2 ± 0.09%
same,"viability at 24 h, 10 µM","[2]; Hek293T cells (non-leukemic control cell line), 10 μM",90.8 ± 0.05%
same,"viability at 24 h, 15 µM","[2]; Hek293T cells (non-leukemic control cell line), 15 μM",90.1 ± 0.07%
same,"viability at 24 h, 20 µM","[2]; Hek293T cells (non-leukemic control cell line), 20 μM",90 ± 0.04%
same,"viability at 24 h, 30 µM","[2]; Hek293T cells (non-leukemic control cell line), 30 μM",84.9 ± 0.04%
same,"viability at 24 h, 50 µM","[2]; Hek293T cells (non-leukemic control cell line), 50 μM",81.3 ± 0.02%
same,"viability at 24 h, 70 µM","[2]; Hek293T cells (non-leukemic control cell line), 70 μM",66.9 ± 0.02%
same,"viability at 24 h, 100 µM","[2]; Hek293T cells (non-leukemic control cell line), 100 μM",66.4 ± 0.03%
same,"viability at 24 h, 150 µM","[2]; Hek293T cells (non-leukemic control cell line), 150 μM",59.4 ± 0.01%
same,"viability at 24 h, 200 µM","[2]; Hek293T cells (non-leukemic control cell line), 200 μM",58.2 ± 0.01%
same,"viability at 24 h, 1 µM","[2]; Hek293T cells, 1 μM",94.3 ± 0.06%
